Assay [1] is described as follows: Glutathione peroxidase activity, t-BuOOH as hydroperoxide. It counts as biochemical. Conditions: compound 20 μM, pH = 7.3, 37° C., [GSH] = 2 mM. As to the method: (§1) To 1.5 ml of HEPES buffer, 50 mM, pH=7.3, containing 0.2 mM of DTPA, 0.144 mM of NADPH, 2.2 mM of reduced glutathione and 1.1 U/ml of glutathione disulfide reductase, pre-equilibrated for 2 minutes at 37° C., 100 μl of an ethanolic mother solution of the compound to be tested or 100 μl of absolute ethanol (blank) was added. Each compound was tested at a final concentration of 20 μM.
(§2) Subsequently, 50 μl of the following was added:
tertiobutyl hydroperoxide (t-BuOOH), 6.6 mM in ultrapure water;
(§3) or the hydroperoxide of linoleic acid (18:2-OOH) prepared using soya lipoxygenase (see M. O. Funk et al., Lipids, (1976), 11, pp 113-117), 3.3 mM in a water/methanol mixture, 85/15 (V/V). The glutathione peroxidase activity was measured at 37° C. by measuring the reduction in absorbance at 340 nm over 5 minutes. The initial enzymatic rate or activity was proportional to the slope of the plot of absorbance against time.
(§4) They are expressed in nmoles of hydroperoxide reduced per minute.

Assay [2] can be described thus: Glutathione peroxidase activity, hydrogen peroxide. In kind it is biochemical. Particulars: compound 20 μM, pH = 7.3, 37° C., [GSH] = 2 mM. As for the experimental part:
as §1, §2
or hydrogen peroxide (H2 O2), 1.6 mM in ultrapure water;
as §3, §4

The next assay has as its system endothelial cells. Briefly: Viability of endothelial cells subjected to linoleic acid hydroperoxide (MTT). Particulars: compound 4 μM, 1 h; 18:2-OOH 50 μM, 2 h; MTT after about twenty hours. It counts as cell-based, human. As to the method: Human endothelial cells were cultivated at 37° C. in multi-hole plates or Petri dishes in an atmosphere of saturated humidity constituted by a gaseous mixture of 95% air and 5% of CO2. The culture medium was constituted by a M 199 medium, pH=7.4, containing 20% of foetal calf serum, 2 mM of L-glutamine, 100 U/ml of penicillin, 100 μg/ml of streptomycin and 1% by volume of a medium supplement containing heparin and a cell growth factor.
When the cells were near confluence, they were incubated for one hour in the presence or absence of one of the following compounds: BXT-51056, BXT-51072, BXT-51077, or ebelsen. Each of these compounds was incorporated at 4 μM into culture medium containing 2% of foetal calf serum, all other conditions being the same.
After washing the cells three successive times with a PBS buffer, they were incubated in the presence or absence (control) of linoleic acid hydroperoxide (18:2-OOH), 50 μM, in the culture medium defined above. […] After about twenty hours, the viability of the cells was determined by measurement using the bromide of 3-(4,5-dimethylthiazol-2-yl)-2,5-diphenyl-2H-tetrazolium (MTT).
The results are shown in FIG. 1, expressed as the survival percentage with respect to the control and where the reference is shown by the black rectangle.

Assay [3] concerns von Willebrandt factor (vWf). As to the kind of experiment: Protection of endothelial cells against interleukin 1 (von Willebrandt factor release). In kind it is cell-based. Conditions: Homo sapiens, Endothelial cell; compound 10 μM; IL-1α 50 U/ml; 4 h; compound present or not during IL-1 incubation; read-out: inhibition of increase in vWf liberation induced by IL-1. As to the method: Human endothelial cells were cultivated under the same conditions as those described for Example 18.
When the cells were near confluence, they were incubated for one hour in the presence or absence of the following compounds: BXT-51072, BXT-51077, each of these compounds being at 10 μM in culture medium containing 2% of foetal calf serum , all other conditions being the same. The cells were then washed three times with a PBS buffer. The cells which had not been pretreated by a compound were incubated in the presence or absence (control) of interleukin 1α (IL-1α), at 50 U/ml, in the same culture medium. […] After four hours of incubation, the von Willebrandt factor (vWf) in the culture medium was measured.

Molecules are shown by their SMILES.

In the case of `CC1(C)CN[Se]c2ccccc21` [BXT-51072, 4,4-dimethyl-benzisoselenazine], in assay [1], the “Glutathione peroxidase activity, t--BuOOH” value is 27.4 nmoles of hydroperoxide reduced/min. Also, in assay [2], the “Glutathione peroxidase activity, H2 O2” value is given as 42.0 nmoles of hydroperoxide reduced/min. Further, in the assay with endothelial cells, the “protection of the cells from death induced by 18:2-OOH” value is “significantly protected the cells from death”. Further, the inhibition at 10 µM in assay [3] is > 70%.

Values taken from patent publication US5968920A, “Compounds having a benzisoselen-azoline and -azine structure, method for preparing same and therapeutic uses thereof” (Oxis Isle of Man, Limited, priority 1994, dated 1999).
